Measured values taken from patent publication US11291661B2, “Pharmaceutical composition” (priority 2019, dated 2022).

Experiments:
[1] = Absorption, distribution, metabolism and excretion after a single 1-mg oral dose of [14C]Compound (A); type: in vivo, human
Text: Primary phase 1 oxidative pathways included:
1) oxidative O-dealkylation; 2) oxidation at the phenyl cyclopropyl isoxazole moiety; 3) oxidation at the benzothiazole and fused ring structure. Metabolites containing multiple oxidative modifications and/or glucuronidation to oxidative products were also observed in human excreta.

[2] = Biopharmaceutical classification / solubility statement; type: physicochemical

In the case of `O=C(O)c1cc(F)c2nc(N3C4CC[C@H]3C[C@@H](OCc3c(-c5ccccc5OC(F)(F)F)noc3C3CC3)C4)sc2c1` [Compound (A), 2-[(1R,3r,5S)-3-({5-cyclopropyl-3-[2-(trifluoromethoxy)phenyl]-1,2-oxazol-4-yl}methoxy)-8-azabicyclo[3.2.1]octan-8-yl]-4-fluoro-1,3-benzothiazole-6-carboxylic acid], the “Faecal excretion of related radioactivity” value [1] is reported as ~65 % of the total dose, the “Unchanged Compound (A) in the plasma” value [1] is reported as ~92 % of total radioactivity and the “urinary excretion of related radioactivity” value [1] is reported as ~29 % of the total dose. For the same compound, the “Mass balance, administered dose recovered in excreta” value ([1]; 312 hours collection period) was “approximately 94%”, the half-life ([1]; human, plasma, read-out: half time (t1/2) in plasma (converted)) was 13.5 h and the Cmax ([1]; human, plasma, read-out: maximum concentration (Cmax) of parent in plasma) was 33.5 ng/mL. The Tmax ([1]; human, plasma, read-out: median Tmax) was 4 h, the water solubility [2] was “low water solubility” and the “biopharmaceutical classification system class” value ([2]; poorly soluble and poorly permeable compound) was “class IV”.
